Article PMC2816717, “Active Fragments from Pro- and Antiapoptotic BCL-2 Proteins Have Distinct Membrane Behavior Reflecting Their Functional Divergence” (PLoS ONE, 2010)

Legend:
[1] = Langmuir monolayer penetration assay, lipid mixture not singled out (Figure 5); assay type: physicochemical; details: Figure 5A; πi 5 mN/m, peptide 0.2 µM, Hepes pH 7.4, duplicate
Text: (§1) For the biophysical characterization of membrane active protein fragments, we have used Langmuir monolayers as in vitro model of lipid membranes. These supramolecular lipid films formed at the air-water interface are attractive membrane models, widely used for studying peptide-lipid interactions, [56], [57]. We have investigated the binding of peptides derived from the central helices of BAX, BCL-xL and BID at physiological pH with model phospholipid monolayers of a composition that imitates mitochondrial membranes. For this purpose we selected fragments encompassing the sequences corresponding to the first or second α-helices of the core hairpins of BAX, BCL-xL and BID, as defined in the water-soluble protein structures, [17], [19]. Because the structures of those proteins in a membrane environment is currently unavailable, for the case of the first hairpin helix of BAX and BCL-xL (α5) we analyzed both a short version (labeled “S”), including only the reported α-helical residues, and a long version (labeled “L”) that extends a few residues beyond the α-helix stretch at both ends. Divergence of the BID sequence precluded unambiguous alignment with the other two proteins and a similar peptide design. Peptides corresponding to the BH3 domain of BAX, BCL-xL and BID were also included in the study. The sequence and some general properties of the peptides analyzed in this study are described in Table 1 and Figure 1). Lipid mixtures of POPC/DOPE (2∶1) and POPC/DOPE/CL (1∶1∶1) were chosen to mimic the MOM and the contact sites between inner and outer mitochondrial membrane (MIM/MOM), respectively. Penetration assays were carried out at constant area by spreading the lipids at the air-buffer interface, compressing the film at πi = […] and then injecting the peptides into the subphase at a concentration of 0.2 µM (see Material and Methods). Subsequent peptide binding results typically in an increase of surface pressure. Thus, the peptide-monolayer interaction can be characterized by measurable kinetic properties, such as the initial velocity of surface pressure increase (Vi), which informs about the affinity of the peptide for the lipid-water interface, and the final increase of surface pressure (πmax), which can be related to the insertion ability of the peptide into the monolayer.
Figure 5 Changes in surface pressure after peptide injection. Peptides were injected underneath POPC/DOPE or POPC/DOPE/CL monolayers at constant area. A. Final increase of surface pressure πmax (mN/m) obtained for the different peptides. The dashed line denotes the threshold (Δπ = 4.8 mN/m) for significant surface pressure variation as determined using BAX-α5S without lipids (see text). B. Initial velocity of surface pressure increase (Vi = Δπ/s).
(§2) Monolayer experiments were performed on a computer-controlled Langmuir film balance (KSV 2000, three multi-compartment system, KSV Instrument Ltd., Finland) working in a symmetrical compression mode and enclosed in an opaque cabinet. The rectangular trough (V = 85 mL ±1 mL, S = 119.25 cm^2) was made of Teflon and the mobile barriers were made in Delrin. The surface pressure, π defined as γ0 – γ, where γ0 is the surface tension of the pure aqueous subphase and γ the surface tension exerted by phospholipids at the subphase surface, was measured by the Wilhelmy's method using a platinum plate with an accuracy of ±0.05 mN/m. The trough was filled with Hepes buffer (pH 7.4), used as subphase and thermostated with a water circulating bath (Lauda E100, LAUDA France, SARL). In all experiments, the subphase temperature was maintained at a constant value of 22.5±0.5°C.
Phospholipid monolayers were formed by deposition of 14 µl of spreading solutions at a clean air/buffer interface by means of a micropipette to reach a final amount of 14 nmol of phospholipids. […]

[2] = tested on: mitochondria isolated from HEK293T cells; test: Cytochrome c release assay; assay type: biochemical; details: 10 µM peptide, 5 min incubation, 30°C, Western blot of supernatant and pellet
Procedure: Thus, we tested the ability of the different peptides to induce the release of mitochondrial proteins by incubating them with mitochondria isolated from HEK293T cells, and subsequently assaying the supernatant and pelleted fractions with antibodies for cytochrome c and mitoHSP70. […] On the other hand, incubation of mitochondria with 10 µM BID-α6 induced a slower release, with depletion of the mitochondrial pool of cytochrome c occurring only after 1 hour incubation.
Figure 7 Cytochrome c release assays. Peptides were incubated with isolated mitochondria for the indicated times (min) and the release of cytochrome c was monitored by Western blotting (IB). MitoHSP70 was used as an equal-loading control for the pellet fraction. Control lanes indicate that in the preparation the MOM is intact and cytochrome c is retained within the intermembrane space. A. Cytochrome c release assays for the first (BAX-α5S, BCLX-α5S, BID-α6) and second helices (BAX-α6, BCLX-α6, BID-α7) of the ‘pore domain’ of BAX, BCL-xL and BID using mitochondria isolated from HEK293T cells. B. Cytochrome c release assays for BAX-α5M and BAX-α5MS using mitochondria isolated from MEF and MEK BAX/BAK -/- double knock-out cells (MEF DKO). C. Cytochrome c release assays for the BH3 peptides.
Crude mitochondria were prepared from HEK 293T, mouse embryo fibroblast (MEF) or BAX/BAK double knockout MEF cells (MEF-DKO). In brief, cells were mechanically broken using a 2 ml glass/glass Dounce homogenizer (Kontes) (30 strokes). Homogenates were cleared at 1500 g and mitochondria were spun down at 10 000 g. For cytochrome c release assays, 30 µg of crude mitochondria were resuspended at 1 mg/ml in KCl buffer supplemented with succinate (5 mM) and EGTA (0.5 mM). Peptides (2.5, 10 or 25 µM) were added to the samples and incubations were carried out at 30°C under agitation (300 rpm). At the indicated time points, samples were centrifuged (5 min, 10 000 g, 4°C); supernatants and pellets were recovered and analyzed by immunoblotting for Cytochrome c and mitoHsp70.

[3] = Langmuir monolayer penetration assay at constant area; assay type: physicochemical; details: POPC/DOPE/CL
Text: as §1, §2
Phospholipid monolayers were formed by deposition of 14 µl of spreading solutions at a clean air/buffer interface by means of a micropipette to reach a final amount of 14 nmol of phospholipids. After complete evaporation of the solvent (∼15 min), the monolayer was slowly compressed up to a defined lateral pressure (initial surface pressure πi) at a rate of 0.045 nm^2 molecule^−1 min^−1. The value of πi = 5 mN/m was chosen because it lies between the surface pressure set-off and surface pressures (e.g. 30 mN/m, which corresponds to a tightly packed film) where many peptides of the study will not insert. […]

Sequence: WGRVVALFYFASKLVLKALSTK [BAX-α5S, short peptide of the first helix (α5) of the central hairpin of BAX]
- final increase of surface pressure πmax (insertion), in words [1]: highest increases in surface pressure
- cytochrome c release, in words [2]: complete depletion of all mitochondrial cytochrome c
- surface pressure increase (Δπ) with lipid monolayer ([3]; initial surface pressure 5 mN/m, peptide 0.2 µM in subphase, Hepes pH 7.4, 22.5°C, constant area): 32.1 mN/m
- πmax (plateau surface pressure after peptide injection) ([3]; πi = 5 mN/m, peptide injected underneath monolayer, compression-decompression experiment): 32.1 mN/m
- exclusion pressure (πex) ([3]; extrapolation of linear Δπ versus πi plot to Δπ = 0): 33 mN/m
